{"source": "patent US20210317140A1", "about": "“Heterocyclic Compounds and Methods of Use” (MEDIVATION TECHNOLOGIES, INC, priority 2013, published 2021)", "key": {"[1]": {"biological_target": "T1, BTK (Homo sapiens, UniProt Q06187)", "T1 construct": "purchased Reaction Biology Corporation", "T1 sequence (Q06187 whole entry)": "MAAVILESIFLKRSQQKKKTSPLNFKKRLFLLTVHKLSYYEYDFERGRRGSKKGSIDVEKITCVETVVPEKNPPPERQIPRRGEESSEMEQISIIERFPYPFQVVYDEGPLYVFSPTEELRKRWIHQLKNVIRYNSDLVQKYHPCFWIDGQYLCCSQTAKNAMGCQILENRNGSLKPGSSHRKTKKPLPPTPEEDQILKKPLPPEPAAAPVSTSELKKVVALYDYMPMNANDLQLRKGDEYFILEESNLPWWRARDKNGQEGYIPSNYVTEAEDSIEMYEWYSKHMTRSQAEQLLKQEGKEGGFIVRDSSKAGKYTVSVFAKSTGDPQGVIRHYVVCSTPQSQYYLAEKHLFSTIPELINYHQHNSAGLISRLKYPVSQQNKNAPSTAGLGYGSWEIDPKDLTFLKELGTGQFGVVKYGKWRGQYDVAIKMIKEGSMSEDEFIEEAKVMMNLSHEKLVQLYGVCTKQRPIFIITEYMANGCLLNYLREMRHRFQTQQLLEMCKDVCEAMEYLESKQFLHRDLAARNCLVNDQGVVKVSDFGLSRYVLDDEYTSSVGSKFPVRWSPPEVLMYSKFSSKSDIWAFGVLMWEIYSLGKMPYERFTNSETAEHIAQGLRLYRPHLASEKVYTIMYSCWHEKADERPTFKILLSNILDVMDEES", "assay": "BTK kinase assay (HotSpot, 33P ATP)", "type": "biochemical", "conditions": "for BTK @ 0.01 μM (% Inh): 0.01 μM compound; for BTK @ 0.01 μM (% Inh) / BTK @ 0.1 μM (% Inh): 10 μM ATP; for BTK @ 0.1 μM (% Inh): 0.1 μM compound; for IC50: 10 dose IC50, 10 μM ATP", "in_short": "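In 20 mM Hepes (pH 7.5) with 10 mM MgCl2, 1 mM EGTA, 0.1 mM Na3VO4, 2 mM DTT, 0.02% Brij35, 0.02 mg/mL BSA and 1% DMSO, kinase and substrate were exposed to ten compound doses for 15–20 min.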"}, "[2]": {"system": "CD69+B220+ cells", "assay": "B cell activation assay (IgD-stimulated splenocytes, CD69+B220+ cells by FACS)", "type": "cell-based", "conditions": "100 nM compound, mouse splenocytes, IgD 3 μg/mL, 4 h", "description": "1 Female mouse approximately 2 months old was euthanized with CO2 and the spleen removed. The tissue was homogenized with a polished glass microscope slide. The cells were collected in 5 mL complete medium (RPMI+10% FBS+pen/strep), placed in a 15 mL falcon tube and centrifuged at 500×g for 5 min. The supernatant was discarded and the pellet was resuspended in 3 mL of ACK lysis buffer (NH4Cl 0.17M, KHCO3 10 mM, EDTA-Na2 0.1 mM, pH 7.2), incubated at 37° C. for 5 min. 2 mL complete medium was added and the mixture centrifuged at 500×g for 5 min. The supernatant was discarded and the pellet resuspended in 1 mL complete medium. The mixture was passed through a […] cell strainer and collect in 50 mL falcon tube. Enough medium was added to have a total of 10 mL. The cells were counted and seeded in 24 or 48-well plate in 1 mL complete medium at 10^6 cells/mL. The plate was placed in a 37° C. incubator for 15 min. The cells were treated for 30 min at 37° C. with 100 nM test compound dissolved in 100% DMSO. 3 μL IgD (Accurate chemical and scientific corp.) was added at a final concentration of 3 μg/mL and the mixture incubated at 37° C. for 4 h. The cells were collected in 1.5 mL eppendorf tubes, centrifuged at 500×g for 5 min and then resuspended in 100 μL of PBS+2% FBS. The following antibodies were added: α-B220 PE (pharmingen #553090), α-CD69 APC (pharmingen #60689), live/dead fixable aqua dead cell stain kit (life technologies #L34957) all at 1:300, and the mixture incubated for 15 min at 4° C. in the dark. To this was added 900 μL of PBS+2% FBS and the mixture centrifuged at 500×g for 5 min. The supernatant was removed and the pellet resuspended in 300 μL of PBS+2% FBS and mixed well. The mixture was transferred to a cytometer tube. The samples were run in the FACS Canto II cytometer and quantified by the number of CD69+B220+ cells as a percentage of the total number of B220+ alive cells."}, "[3]": {"biological_target": "T2, PI3Kδ (Homo sapiens, UniProt O00329)", "T2 construct": "purchased Reaction Biology Corporation", "T2 sequence (O00329 whole entry)": "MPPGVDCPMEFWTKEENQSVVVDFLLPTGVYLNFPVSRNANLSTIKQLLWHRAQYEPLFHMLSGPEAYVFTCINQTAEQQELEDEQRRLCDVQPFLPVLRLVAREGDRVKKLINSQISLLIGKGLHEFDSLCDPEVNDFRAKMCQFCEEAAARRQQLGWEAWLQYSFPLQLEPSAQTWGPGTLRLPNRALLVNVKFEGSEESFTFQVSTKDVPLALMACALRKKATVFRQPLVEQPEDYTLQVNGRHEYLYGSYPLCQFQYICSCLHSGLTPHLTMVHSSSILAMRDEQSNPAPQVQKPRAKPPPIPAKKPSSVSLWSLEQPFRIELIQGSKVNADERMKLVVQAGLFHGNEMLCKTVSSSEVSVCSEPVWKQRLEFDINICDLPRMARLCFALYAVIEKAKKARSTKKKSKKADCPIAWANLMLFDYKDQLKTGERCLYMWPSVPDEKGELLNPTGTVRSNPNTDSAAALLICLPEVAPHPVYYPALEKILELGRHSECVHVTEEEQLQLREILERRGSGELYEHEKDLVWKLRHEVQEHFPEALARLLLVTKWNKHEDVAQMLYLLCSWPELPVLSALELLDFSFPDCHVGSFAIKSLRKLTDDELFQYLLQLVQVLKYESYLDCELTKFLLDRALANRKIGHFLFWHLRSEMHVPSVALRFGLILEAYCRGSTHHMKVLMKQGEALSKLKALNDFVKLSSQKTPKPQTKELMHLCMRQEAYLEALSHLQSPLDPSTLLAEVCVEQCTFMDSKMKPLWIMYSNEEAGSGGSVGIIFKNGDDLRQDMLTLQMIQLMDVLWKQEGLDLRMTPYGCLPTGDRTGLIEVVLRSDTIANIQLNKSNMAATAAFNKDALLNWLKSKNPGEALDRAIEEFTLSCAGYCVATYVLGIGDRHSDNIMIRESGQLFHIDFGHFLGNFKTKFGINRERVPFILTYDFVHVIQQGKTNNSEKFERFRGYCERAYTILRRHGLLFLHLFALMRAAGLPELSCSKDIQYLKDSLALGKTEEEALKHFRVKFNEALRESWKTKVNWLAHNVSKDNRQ", "T2 sequence (P27986 whole entry partner)": "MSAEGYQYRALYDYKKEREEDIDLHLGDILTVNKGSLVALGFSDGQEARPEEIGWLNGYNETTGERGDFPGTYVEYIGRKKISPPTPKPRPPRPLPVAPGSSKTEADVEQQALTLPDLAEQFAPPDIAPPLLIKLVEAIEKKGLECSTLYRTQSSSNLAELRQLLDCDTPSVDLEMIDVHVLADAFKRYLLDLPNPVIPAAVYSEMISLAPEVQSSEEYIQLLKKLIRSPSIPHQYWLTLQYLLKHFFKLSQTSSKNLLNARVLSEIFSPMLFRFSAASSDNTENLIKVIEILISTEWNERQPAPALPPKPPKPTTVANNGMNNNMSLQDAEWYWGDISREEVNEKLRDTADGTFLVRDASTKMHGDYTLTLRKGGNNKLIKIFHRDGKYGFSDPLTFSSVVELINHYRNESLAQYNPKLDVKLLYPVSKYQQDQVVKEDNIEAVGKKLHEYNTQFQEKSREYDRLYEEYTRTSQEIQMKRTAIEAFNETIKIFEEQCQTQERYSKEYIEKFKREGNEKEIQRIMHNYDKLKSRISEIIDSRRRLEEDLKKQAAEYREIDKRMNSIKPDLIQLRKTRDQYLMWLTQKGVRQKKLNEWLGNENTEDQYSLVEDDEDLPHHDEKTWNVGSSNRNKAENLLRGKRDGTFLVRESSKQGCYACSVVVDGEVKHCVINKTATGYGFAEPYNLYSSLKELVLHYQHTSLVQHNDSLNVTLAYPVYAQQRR", "assay": "PI3Kδ kinase assay (HTRF, PIP3 detection)", "type": "biochemical", "conditions": "for PI3Kδ @ 0.01 μM (% Inh): 0.01 μM compound; for PI3Kδ @ 0.01 μM (% Inh) / PI3Kδ @ 0.1 μM (% Inh): 10 μM ATP; for PI3Kδ @ 0.1 μM (% Inh): 0.1 μM compound; for IC50: 10 dose IC50, 10 μM ATP", "in_short": "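PIP3 formation read by loss of energy transfer as it displaces biotin-PIP3 from a Eu anti-GST/GST-PH/streptavidin-APC complex, calibrated against PIP3 standards.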"}}, "data": [{"smiles": "CNc1cc(-c2cn(C3Cc4ccccc4C3)c3ncnc(N)c23)cc(F)c1F", "note": "[compound 113, 5-[3,4-difluoro-5-(methylamino)phenyl]-7-(2,3-dihydro-1H-inden-2-yl)-7H-pyrrolo[2,3-d]pyrimidin-4-amine]", "values": [{"measurement": "BTK @ 0.01 μM (% Inh)", "setting": "[1]", "value": 8.12, "unit": "% Inh"}, {"measurement": "BTK @ 0.1 μM (% Inh)", "setting": "[1]", "value": 38.11, "unit": "% Inh"}, {"measurement": "CD69 @ 100 nM (% Inh)", "setting": "[2]", "value": "11.61 ± 11.81 (n = 3) % Inh"}, {"measurement": "PI3Kδ @ 0.01 μM (% Inh)", "setting": "[3]", "value": 20.77, "unit": "% Inh"}, {"measurement": "PI3Kδ @ 0.1 μM (% Inh)", "setting": "[3]", "value": 39.52, "unit": "% Inh"}]}, {"smiles": "Nc1ncnc2c1c(-c1cc(O)c(F)c(F)c1)cn2C1CCc2ccccc2C1", "note": "(centres unmarked) [compound 114, 5-[4-amino-7-(1,2,3,4-tetrahydronaphthalen-2-yl)-7H-pyrrolo[2,3-d]pyrimidin-5-yl]-2,3-difluorophenol]", "values": [{"measurement": "BTK @ 0.01 μM (% Inh)", "setting": "[1]", "value": 41.16, "unit": "% Inh"}, {"measurement": "BTK @ 0.1 μM (% Inh)", "setting": "[1]", "value": 86.29, "unit": "% Inh"}, {"measurement": "IC50", "setting": "[1]", "value": 20.2, "unit": "nM"}, {"measurement": "CD69 @ 100 nM (% Inh)", "setting": "[2]", "value": "10.19 ± 13.54 (n = 3) % Inh"}, {"measurement": "PI3Kδ @ 0.01 μM (% Inh)", "setting": "[3]", "value": 41.19, "unit": "% Inh"}, {"measurement": "PI3Kδ @ 0.1 μM (% Inh)", "setting": "[3]", "value": 84.46, "unit": "% Inh"}, {"measurement": "IC50", "setting": "[3]", "value": 23.2, "unit": "nM"}]}, {"smiles": "NC(=O)c1cc(-c2cn(C3Cc4ccccc4C3)c3ncnc(N)c23)cc(O)c1F", "note": "[compound 116, 5-[4-amino-7-(2,3-dihydro-1H-inden-2-yl)-7H-pyrrolo[2,3-d]pyrimidin-5-yl]-2-fluoro-3-hydroxybenzamide]", "values": [{"measurement": "BTK @ 0.01 μM (% Inh)", "setting": "[1]", "value": 10.59, "unit": "% Inh"}, {"measurement": "BTK @ 0.1 μM (% Inh)", "setting": "[1]", "value": 47.8, "unit": "% Inh"}, {"measurement": "IC50", "setting": "[1]", "value": 71.8, "unit": "nM"}, {"measurement": "CD69 @ 100 nM (% Inh)", "setting": "[2]", "value": "20.48 ± 16.90 (n = 3) % Inh"}, {"measurement": "PI3Kδ @ 0.01 μM (% Inh)", "setting": "[3]", "value": 6.65, "unit": "% Inh"}, {"measurement": "PI3Kδ @ 0.1 μM (% Inh)", "setting": "[3]", "value": 70.68, "unit": "% Inh"}, {"measurement": "IC50", "setting": "[3]", "value": 77.9, "unit": "nM"}]}, {"smiles": "Nc1ncnc2c1c(-c1cc(O)c(F)c(Cl)c1)nn2C1Cc2ccccc2C1", "note": "[compound 117, 5-[4-amino-1-(2,3-dihydro-1H-inden-2-yl)-1H-pyrazolo[3,4-d]pyrimidin-3-yl]-3-chloro-2-fluorophenol]", "values": [{"measurement": "BTK @ 0.01 μM (% Inh)", "setting": "[1]", "value": 21.31, "unit": "% Inh"}, {"measurement": "BTK @ 0.1 μM (% Inh)", "setting": "[1]", "value": 67.32, "unit": "% Inh"}, {"measurement": "CD69 @ 100 nM (% Inh)", "setting": "[2]", "value": "46.59 ± 11.89 (n = 3) % Inh"}, {"measurement": "PI3Kδ @ 0.01 μM (% Inh)", "setting": "[3]", "value": 75.86, "unit": "% Inh"}, {"measurement": "PI3Kδ @ 0.1 μM (% Inh)", "setting": "[3]", "value": 91.69, "unit": "% Inh"}]}, {"smiles": "Nc1ncnc2c1c(-c1cc(O)c(Cl)c(Cl)c1)nn2C1Cc2ccccc2C1", "note": "[compound 118, 5-[4-amino-1-(2,3-dihydro-1H-inden-2-yl)-1H-pyrazolo[3,4-d]pyrimidin-3-yl]-2,3-dichlorophenol]", "values": [{"measurement": "BTK @ 0.01 μM (% Inh)", "setting": "[1]", "value": 19.01, "unit": "% Inh"}, {"measurement": "BTK @ 0.1 μM (% Inh)", "setting": "[1]", "value": 65.15, "unit": "% Inh"}, {"measurement": "CD69 @ 100 nM (% Inh)", "setting": "[2]", "value": "44.32 ± 10.35 (n = 3) % Inh"}, {"measurement": "PI3Kδ @ 0.01 μM (% Inh)", "setting": "[3]", "value": 79.16, "unit": "% Inh"}, {"measurement": "PI3Kδ @ 0.1 μM (% Inh)", "setting": "[3]", "value": 95.72, "unit": "% Inh"}]}, {"smiles": "Nc1ncnc2c1c(-c1cc(O)c(F)c(F)c1)nn2C1CCc2ccccc2C1", "note": "(centres unmarked) [compound 119, 5-[4-amino-1-(1,2,3,4-tetrahydronaphthalen-2-yl)-1H-pyrazolo[3,4-d]pyrimidin-3-yl]-2,3-difluorophenol]", "values": [{"measurement": "BTK @ 0.01 μM (% Inh)", "setting": "[1]", "value": 21.71, "unit": "% Inh"}, {"measurement": "BTK @ 0.1 μM (% Inh)", "setting": "[1]", "value": 70.28, "unit": "% Inh"}, {"measurement": "CD69 @ 100 nM (% Inh)", "setting": "[2]", "value": "47.52 ± 5.57 (n = 3) % Inh"}, {"measurement": "PI3Kδ @ 0.01 μM (% Inh)", "setting": "[3]", "value": 70.35, "unit": "% Inh"}, {"measurement": "PI3Kδ @ 0.1 μM (% Inh)", "setting": "[3]", "value": 91.77, "unit": "% Inh"}]}, {"smiles": "N#Cc1cc(-c2nn(C3Cc4ccccc4C3)c3ncnc(N)c23)cc(O)c1F", "note": "[compound 120, 5-[4-amino-1-(2,3-dihydro-1H-inden-2-yl)-1H-pyrazolo[3,4-d]pyrimidin-3-yl]-2-fluoro-3-hydroxybenzonitrile]", "values": [{"measurement": "BTK @ 0.01 μM (% Inh)", "setting": "[1]", "value": 93.67, "unit": "% Inh"}, {"measurement": "BTK @ 0.1 μM (% Inh)", "setting": "[1]", "value": 1.41, "unit": "% Inh"}, {"measurement": "CD69 @ 100 nM (% Inh)", "setting": "[2]", "value": "−99.28 ± 22.26 (n = 3) % Inh"}, {"measurement": "PI3Kδ @ 0.01 μM (% Inh)", "setting": "[3]", "value": 77.84, "unit": "% Inh"}, {"measurement": "PI3Kδ @ 0.1 μM (% Inh)", "setting": "[3]", "value": 91.68, "unit": "% Inh"}]}, {"smiles": "Nc1ncnc2c1c(-c1cc(F)c3c(c1)NCCO3)nn2C1Cc2ccc(F)cc2C1", "note": "(centres unmarked) [compound 121, 1-(5-fluoro-2,3-dihydro-1H-inden-2-yl)-3-(8-fluoro-3,4-dihydro-2H-1,4-benzoxazin-6-yl)-1H-pyrazolo[3,4-d]pyrimidin-4-amine]", "values": [{"measurement": "BTK @ 0.01 μM (% Inh)", "setting": "[1]", "value": 90.34, "unit": "% Inh"}, {"measurement": "BTK @ 0.1 μM (% Inh)", "setting": "[1]", "value": 6.55, "unit": "% Inh"}, {"measurement": "CD69 @ 100 nM (% Inh)", "setting": "[2]", "value": "−82.03 ± 14.71 (n = 3) % Inh"}, {"measurement": "PI3Kδ @ 0.01 μM (% Inh)", "setting": "[3]", "value": 1.09, "unit": "% Inh"}, {"measurement": "PI3Kδ @ 0.1 μM (% Inh)", "setting": "[3]", "value": 25.95, "unit": "% Inh"}]}]}
